Data on eight compounds can be found in EP2057185B1, “POLYMYXIN DERIVATIVES AND USES THEREOF” (Northern Antibiotics Oy, priority 2006, dated 2008).

Bounds are passed on as bounds.

For one experiment, the system named is K. pneumoniae ATCC13883. Put plainly: MIC by E-strips on Mueller-Hinton agar with or without NAB7061 (4 µg/ml). Conditions: ratio of the MIC of the antibiotic in the absence of NAB 7061 to that in the presence of 4 µg/ml of NAB 7061; K. pneum. ATCC 13883. It counts as cell-based, Klebsiella pneumoniae. The protocol:
(§1) MICs were determined by using E-strips (Biodisk Ltd., Solna, Sweden) according to the manufacturer's instructions.
(§2) The strains originated from ATCC (11 strains), CCUG (11 strains), and NCTC (The National Collection of Type Cultures, Colindale, U.K.; 2 strains). Eight strains (the F-strains) were purchased from Mobidiag Ltd., Helsinki, Finland.

For another experiment, the system named is E. cloacae ATCC23355. The description is as above. It counts as cell-based, Enterobacter cloacae. Conditions: ratio of the MIC of the antibiotic in the absence of NAB 7061 to that in the presence of 4 µg/ml of NAB 7061; E. cloacae ATCC 23355. The protocol: as §1, §2
The test system of another experiment is E. coli IH3080. Described as above. As to conditions: ratio of the MIC of the antibiotic in the absence of NAB 7061 to that in the presence of 4 µg/ml of NAB 7061; E. coli IH 3080. It counts as cell-based, Escherichia coli. The procedure:
as §1, §2

In a further experiment the test system is E. coli ATCC25922. The description is as above. It counts as cell-based, Escherichia coli. As to conditions: ratio of the MIC of the antibiotic in the absence of NAB 7061 to that in the presence of 4 µg/ml of NAB 7061; E. coli ATCC 25922. The protocol:
as §1, §2

Experiment [1] concerns E. coli (ATCC25922 and IH3080), K. pneumoniae ATCC13883, and E. cloacae ATCC23355. Put plainly: E-strip MIC, summary over the tested strains of Example 7. It counts as cell-based. As to conditions: range over the tested strains; NAB7061 4 µg/ml. The protocol: as §1
The next experiment has as its system Ac. baumannii F264. The experiment in a line: MIC by E-strips on Mueller-Hinton agar with or without NAB7061 (4 µg/ml). It counts as cell-based, Acinetobacter baumannii. As to conditions: A. baumannii F264; NAB 7061 4 µg/ml. The protocol:
as §1, §2

The subject of the next experiment is Ac. baumannii F263. The experiment is described as above. It counts as cell-based, Acinetobacter baumannii. As to conditions: A. baumannii F263; NAB 7061 4 µg/ml. The protocol:
as §1, §2

Turning to `CC[C@H]1OC(=O)[C@H](C)[C@@H](O[C@H]2C[C@@](C)(OC)[C@@H](O)[C@H](C)O2)[C@H](C)[C@@H](O[C@@H]2O[C@H](C)C[C@H](N(C)C)[C@H]2O)[C@](C)(O)C[C@@H](C)CN(C)[C@H](C)[C@@H](O)[C@]1(C)O` [Azithromycin, azithromycin], the Sensitization factor is listed as 31 - 43 with K. pneumoniae ATCC13883; 32 with E. cloacae ATCC23355; 31 - 94 in the experiment with E. coli IH3080; 24 - 64 in the experiment with E. coli ATCC25922; 31-94 in experiment [1].
As to `CC[C@H]1OC(=O)[C@H](C)[C@@H](O[C@H]2C[C@@](C)(OC)[C@@H](O)[C@H](C)O2)[C@H](C)[C@@H](O[C@@H]2O[C@H](C)C[C@H](N(C)C)[C@H]2O)[C@](C)(O)C[C@@H](C)C(=O)[C@H](C)[C@@H](O)[C@]1(C)O` [Erythromycin, erythromycin], the Sensitization factor was 24 - 48 with K. pneumoniae ATCC13883; 21 - 43 in the experiment with E. cloacae ATCC23355; 32 - 42 in the experiment with E. coli IH3080; 32 - 48 in the experiment on E. coli ATCC25922; 21-48 in experiment [1].
For `C/C(=C\C(=O)OCCCCCCCCC(=O)O)C[C@@H]1OC[C@H](C[C@@H]2O[C@H]2[C@@H](C)[C@H](C)O)[C@@H](O)[C@H]1O` [Mupirocin, mupirocin] the same measures were 24 - 32, 250 - 512, 64 - 85, 64 - 170 and 24-512.
On to `CO[C@H]1/C=C/O[C@@]2(C)Oc3c(C)c(O)c4c(O)c(c(/C=N/N5CCN(C)CC5)c(O)c4c3C2=O)NC(=O)/C(C)=C\C=C\[C@H](C)[C@H](O)[C@@H](C)[C@@H](O)[C@@H](C)[C@H](OC(C)=O)[C@@H]1C` [Rifampin, rifampin], for which the Sensitization factor with K. pneumoniae ATCC13883 was 250 - 500; in the experiment with E. cloacae ATCC23355, 750 - 1500; in the experiment with E. coli IH3080, 170 - 350; with E. coli ATCC25922 it was 250 - 750.
For `CN[C@H](CC(C)C)C(=O)N[C@H]1C(=O)N[C@@H](CC(N)=O)C(=O)N[C@H]2C(=O)N[C@H]3C(=O)N[C@H](C(=O)N[C@H](C(=O)O)c4cc(O)cc(O)c4-c4cc3ccc4O)[C@H](O)c3ccc(c(Cl)c3)Oc3cc2cc(c3O[C@@H]2O[C@H](CO)[C@@H](O)[C@H](O)[C@H]2O[C@H]2C[C@](C)(N)[C@H](O)[C@H](C)O2)Oc2ccc(cc2Cl)[C@H]1O` [Vancomycin, vancomycin] the same measures were 1, 32, 2.5 and 5.
As for `C[C@@H](O)[C@H]1C(=O)N2C(C(=O)O)=C(SCCN=CN)C[C@H]12` [imipenem], the results for the “MIC (µg/ml) at the indicated concn (µg/ml) of NAB 7061: 4” value against Ac. baumannii F264 and in the experiment with Ac. baumannii F263 were 6 µg/mL and 8 µg/mL, respectively.
Regarding `C[C@@H](O)[C@H]1C(=O)N2C(C(=O)O)=C(S[C@@H]3CN[C@H](C(=O)N(C)C)C3)[C@H](C)[C@H]12` [meropenem], the figures for the “MIC (µg/ml) at the indicated concn (µg/ml) of NAB 7061: 4” value in the experiment on Ac. baumannii F264 and in the experiment with Ac. baumannii F263 were 4 µg/mL and 6 µg/mL, respectively. In addition, in the experiment with E. coli ATCC25922, the Sensitization factor was below 2.
Regarding “quinupristin-dalfopristin [Quinupristin-dalfopr.]”, the Sensitization factor is reported as 1 with K. pneumoniae ATCC13883, above 5 in the experiment with E. cloacae ATCC23355, above 21 in the experiment on E. coli IH3080 and above 21 with E. coli ATCC25922.
